This series is described as follows: method code SF, from Furst, W.; Becher, M. (1990). Homologues of 2-acetamido-4-nitropropoxybenzene (Falimint). I. Preparation, physicochemical and organoleptic properties. Pharmazie, 45(12)934-935.
The compound `CCCCCOc1ccc([N+](=O)[O-])cc1NC(C)=O` gave a log partition coefficient (logP) of 2.67. Then `CCCCCCCCCCCC(=O)Nc1cc([N+](=O)[O-])ccc1OCCC`, with 3.48. With `COc1ccc([N+](=O)[O-])cc1NC(C)=O` the figure was 1.6; with `CCCCCCCCCC(=O)Nc1cc([N+](=O)[O-])ccc1OCCC`, 3.3; with `CCCCCCCCOc1ccc([N+](=O)[O-])cc1NC(C)=O`, 3.18. With `CCCCCCCC(=O)Nc1cc([N+](=O)[O-])ccc1OCCC` the figure was 3.14; with `CCCOc1ccc([N+](=O)[O-])cc1NC(C)=O`, 1.6. In turn, `CCCOc1ccc([N+](=O)[O-])cc1NC(=O)CC` displayed a logP of 1.93. With `CCOc1ccc([N+](=O)[O-])cc1NC(=O)CC` the figure was 1.85; with `CCCCCCOc1ccc([N+](=O)[O-])cc1NC(C)=O`, 2.91. Turning to `CCCCCCCCCCCCOc1ccc([N+](=O)[O-])cc1NC(C)=O`, the logP was 3.65. `CCCCCC(=O)Nc1cc([N+](=O)[O-])ccc1OCCC` returned a logP of 2.78. Then `CCCCOc1ccc([N+](=O)[O-])cc1NC(C)=O`, with 2.26; and `CCCOc1ccc([N+](=O)[O-])cc1NC(=O)CCC`, with 2.4.

Usually logP stands for a log measure of how a compound divides between an organic and an aqueous phase. The low end stands for a more hydrophilic compound, the high end for a more lipophilic compound.
